According to BindingDB's records for patent US20240299360 (Jiangsu Hengrui Pharmaceuticals, 2024):
Several values for one entry are separate records, joined by “and”; a condition that tells them apart may be missing. Identical values can stand only once.

Assays:
[1] = target: T1, A disintegrin and metalloproteinase with thrombospondin motifs 5 (Homo sapiens, UniProt Q9UNA0); test: In Vitro ELISA (Enzyme-Linked Immunosorbent Assay) of ADAMTS-5 Activity
T1 sequence (Q9UNA0 whole entry): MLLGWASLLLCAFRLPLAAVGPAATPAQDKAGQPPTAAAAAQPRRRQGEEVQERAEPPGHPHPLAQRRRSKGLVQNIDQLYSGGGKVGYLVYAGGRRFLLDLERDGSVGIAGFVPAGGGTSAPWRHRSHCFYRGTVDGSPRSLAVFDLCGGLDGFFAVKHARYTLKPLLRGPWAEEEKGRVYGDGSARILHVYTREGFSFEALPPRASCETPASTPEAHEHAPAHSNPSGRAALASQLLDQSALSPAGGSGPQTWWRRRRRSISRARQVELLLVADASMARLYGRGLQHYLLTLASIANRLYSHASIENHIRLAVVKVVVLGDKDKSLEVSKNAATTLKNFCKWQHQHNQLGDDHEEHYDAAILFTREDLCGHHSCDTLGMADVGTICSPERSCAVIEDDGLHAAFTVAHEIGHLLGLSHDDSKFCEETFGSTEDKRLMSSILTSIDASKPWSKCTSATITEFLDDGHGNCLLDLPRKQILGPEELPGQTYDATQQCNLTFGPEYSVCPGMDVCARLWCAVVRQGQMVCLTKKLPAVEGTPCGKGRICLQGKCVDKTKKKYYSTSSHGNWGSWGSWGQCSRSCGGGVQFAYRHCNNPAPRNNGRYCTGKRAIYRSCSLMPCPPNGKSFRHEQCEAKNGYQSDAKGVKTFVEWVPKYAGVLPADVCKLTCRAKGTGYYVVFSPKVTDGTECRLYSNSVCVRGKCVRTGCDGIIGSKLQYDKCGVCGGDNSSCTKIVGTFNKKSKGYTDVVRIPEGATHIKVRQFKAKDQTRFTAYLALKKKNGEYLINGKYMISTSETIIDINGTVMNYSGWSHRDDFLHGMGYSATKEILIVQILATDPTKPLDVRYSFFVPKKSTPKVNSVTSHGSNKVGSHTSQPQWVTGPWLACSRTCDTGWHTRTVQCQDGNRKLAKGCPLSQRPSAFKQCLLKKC
Method: Table 2: In this assay, the enzymatic activity of recombinant ADAMTS-5 protein (catalog #2198-AD, R&D Systems) was assayed with a protein substrate, the aggrecan IGD protein. The aggrecan IGD protein is a polypeptide connecting human aggrecan globular domains 1 and 2 (T331-G458) expressed in E. Coli with a C-terminal His-tag (catalog #30411000, BIOTEZ). The enzymatic product ARGSVIL-peptide was detected using an ELISA kit from BioTEZ (catalog #30510111). An assay buffer containing 50 mM HEPES pH 7.5, 100 mM NaCl, 5 mM CaCl2), 0.1% CHAPS and 5% Glycerol was prepared. Recombinant ADAMTS-5 protein was diluted to 0.3 nM in the assay buffer. […] and 10 μl of compound solution was transferred to each well of a 96-well plate and incubated at room temperature for 15 minutes. Substrate aggrecan-IGD was diluted to 100 nM with the assay buffer and 20 μl was added to each well. The plate was incubated at 37° C. for 45 minutes. After incubation, the newly generated epitope ARGSVIL-peptides were measured using the Aggrecanase Activity ELISA Assay Kit following the manufacturer's instructions. Then, 100 μl of stop solution was added and the absorbance of each well was read at 450 nm, using […] as reference on a TECAN plate reader.

[2] = target: T2, A disintegrin and metalloproteinase with thrombospondin motifs 4 (Homo sapiens, UniProt O75173); test: In Vitro Fluorescence Assay of ADAMTS-4 or ADAMTS-5 Activity
T2 sequence (O75173 whole entry): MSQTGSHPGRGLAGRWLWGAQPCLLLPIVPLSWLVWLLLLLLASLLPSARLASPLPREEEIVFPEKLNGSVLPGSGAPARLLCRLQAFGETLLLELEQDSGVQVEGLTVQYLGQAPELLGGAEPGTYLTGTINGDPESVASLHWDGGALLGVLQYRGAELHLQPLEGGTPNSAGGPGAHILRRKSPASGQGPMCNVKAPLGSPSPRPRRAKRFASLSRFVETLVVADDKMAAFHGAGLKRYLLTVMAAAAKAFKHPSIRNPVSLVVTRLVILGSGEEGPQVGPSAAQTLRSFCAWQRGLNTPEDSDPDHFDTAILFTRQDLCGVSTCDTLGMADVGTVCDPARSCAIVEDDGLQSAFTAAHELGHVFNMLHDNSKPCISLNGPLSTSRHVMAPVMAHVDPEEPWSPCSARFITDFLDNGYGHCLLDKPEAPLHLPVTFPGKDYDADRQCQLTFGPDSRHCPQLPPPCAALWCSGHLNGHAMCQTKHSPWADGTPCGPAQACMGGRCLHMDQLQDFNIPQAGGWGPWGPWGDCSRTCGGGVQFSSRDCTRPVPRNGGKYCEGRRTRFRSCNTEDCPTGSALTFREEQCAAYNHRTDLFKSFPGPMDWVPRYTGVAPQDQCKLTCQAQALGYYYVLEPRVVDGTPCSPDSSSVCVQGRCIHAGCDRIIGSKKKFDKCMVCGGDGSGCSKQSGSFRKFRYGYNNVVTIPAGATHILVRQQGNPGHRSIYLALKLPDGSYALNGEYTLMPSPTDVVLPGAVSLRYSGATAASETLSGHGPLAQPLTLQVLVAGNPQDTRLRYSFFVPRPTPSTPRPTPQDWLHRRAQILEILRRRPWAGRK
Method: Table 1: A FRET (fluorescence resonance energy transfer) peptide was cleaved by recombinant ADAMTS-4 or ADAMTS-5 proteins into two separate fragments resulting in an increase of fluorescence signal which was quantified. The peptide was 5-FAM-TEGEARGSVILLK(5-TAMRA)K-NH2, customized from ANASPEC. ADAMTS-4 recombinant protein (catalog #4307-AD) and ADAMTS-5 recombinant protein (catalog #2198-AD) were purchased from R&D Systems. An assay buffer containing 50 mM HEPES pH 7.5, 100 mM NaCl, 5 mM CaCl2, 0.1% CHAPS and 5% Glycerol was prepared. A volume of 2.5 μl of compound in the assay buffer was dispensed to a 384-well plate, and 2.5 μl of ADAMTS-4 or ADAMTS-5 protein (final concentration in the reaction was 10 nM) was added. The compounds and proteins were pre-incubated at room temperature for 15 minutes. Then, 5 μl of substrate was added to each well. The final substrate concentrations for ADAMTS-4 and ADAMTS-5 were 15 μM and 8 μM, respectively. The fluorescence signal in each well was determined, after incubation at 37° C. for 3 hours, on a TECAN plate reader (Excitation, 490 nm; Emission, 520 nm).

CC(C[C@@]1(C2CC2)NC(=O)NC1=O)C(=O)N1Cc2cc(Cl)c(Cl)cc2C1C (some centres not stated) [US20240299360, Example 70]
IC50 [1]: 26 nM and 83 nM
IC50 [2]: 20 nM
